ChEMBL document CHEMBL1140477 (Bioorg Med Chem, 2007)

Biological target: T1, 3-hydroxy-3-methylglutaryl-coenzyme A reductase (Rattus norvegicus, UniProt P51639)
T1 sequence (P51639 whole entry): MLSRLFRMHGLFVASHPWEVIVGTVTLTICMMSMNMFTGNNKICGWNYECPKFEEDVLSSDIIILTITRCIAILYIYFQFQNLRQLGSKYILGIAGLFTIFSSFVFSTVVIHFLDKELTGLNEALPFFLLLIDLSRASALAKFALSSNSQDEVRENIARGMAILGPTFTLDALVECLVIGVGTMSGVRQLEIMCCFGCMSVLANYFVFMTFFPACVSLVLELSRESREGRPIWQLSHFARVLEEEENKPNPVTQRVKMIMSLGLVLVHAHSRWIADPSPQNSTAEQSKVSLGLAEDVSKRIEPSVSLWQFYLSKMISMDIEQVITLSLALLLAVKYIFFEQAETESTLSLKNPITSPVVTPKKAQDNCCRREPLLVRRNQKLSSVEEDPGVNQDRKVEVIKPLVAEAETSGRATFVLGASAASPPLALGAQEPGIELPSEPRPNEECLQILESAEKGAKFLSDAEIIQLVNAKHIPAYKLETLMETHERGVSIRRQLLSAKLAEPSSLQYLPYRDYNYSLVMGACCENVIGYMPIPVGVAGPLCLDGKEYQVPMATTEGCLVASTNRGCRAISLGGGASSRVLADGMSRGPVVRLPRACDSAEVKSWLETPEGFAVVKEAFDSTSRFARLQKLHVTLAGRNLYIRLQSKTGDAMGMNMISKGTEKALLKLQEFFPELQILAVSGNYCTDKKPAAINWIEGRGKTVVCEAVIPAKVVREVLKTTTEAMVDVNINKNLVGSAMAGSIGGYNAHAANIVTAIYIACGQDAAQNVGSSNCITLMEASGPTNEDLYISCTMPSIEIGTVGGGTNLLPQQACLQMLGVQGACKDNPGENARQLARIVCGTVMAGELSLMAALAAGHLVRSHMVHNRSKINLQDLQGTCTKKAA
Experiment: Inhibition of Holtzman-Sprague-Dawley rat liver HMG CoA reductase after 30 mins

SMILES | IC50
O=C1C[C@H](O)C[C@@H](/C=C/c2cnc3cc(Sc4ccc(F)cc4)c(F)cc3c2Sc2ccc(F)cc2)O1 | 38.9 µM
O=C(O)C[C@H](O)C[C@H](O)/C=C/c1c(C2CC2)nc2ccccc2c1-c1ccc(F)cc1 [PITAVASTATIN CALCIUM] | 10.6 µM
COc1cccc(Sc2c(F)cc3c(Sc4cccc(OC)c4)c(/C=C/[C@@H]4C[C@@H](O)CC(=O)O4)cnc3c2Sc2cccc(OC)c2)c1 | 74.6 µM
O=C1C[C@H](O)C[C@@H](/C=C/c2cnc3cc(Sc4ccccc4)c(F)cc3c2Sc2ccccc2)O1 | 4.41 µM
CC(C)c1ccc(Sc2cc3ncc(/C=C/[C@@H]4C[C@@H](O)CC(=O)O4)c(Sc4ccc(C(C)C)cc4)c3cc2Sc2ccc(C(C)C)cc2)cc1 | 14.2 µM
CC(C)c1ccc(Sc2ccc3c(Sc4ccc(C(C)C)cc4)c(/C=C/[C@@H]4C[C@@H](O)CC(=O)O4)cnc3c2)cc1 | 15.8 µM
COc1cccc(Sc2cc3ncc(/C=C/[C@@H]4C[C@@H](O)CC(=O)O4)c(Sc4cccc(OC)c4)c3cc2Sc2cccc(OC)c2)c1 | 15.4 µM
CC(C)c1ccc(Sc2c(/C=C/[C@@H]3C[C@@H](O)CC(=O)O3)cnc3ccccc23)cc1 | 12.7 µM
O=C1C[C@H](O)C[C@@H](/C=C/c2cnc3ccccc3c2Sc2ccc(F)cc2)O1 | 18.6 µM
CC(C)c1ccc(Sc2cc3c(Sc4ccc(C(C)C)cc4)c(/C=C/[C@@H]4C[C@@H](O)CC(=O)O4)cnc3c(Sc3ccc(C(C)C)cc3)c2Sc2ccc(C(C)C)cc2)cc1 | 4.35 µM
COc1cccc(Sc2c(F)cc3c(Sc4cccc(OC)c4)c(/C=C/[C@@H]4C[C@@H](O)CC(=O)O4)cnc3c2F)c1 | 49.7 µM
O=C1C[C@H](O)C[C@@H](/C=C/c2cnc3c(F)c(F)c(F)cc3c2Sc2ccccc2)O1 | 10.7 µM
CC(C)c1ccc(Sc2c(/C=C/[C@@H]3C[C@@H](O)CC(=O)O3)cnc3cc(Cl)c(F)cc23)cc1 | 22.1 µM
O=C1C[C@H](O)C[C@@H](/C=C/c2cnc3cc(Sc4ccccc4)c(Sc4ccccc4)cc3c2Sc2ccccc2)O1 | 32.5 µM
